The record followed here is paper PMC10368641, “Expulsion mechanism of the substrate-translocating subunit in ECF transporters” (Nature Communications, 2023).

The Km is the substrate concentration at which the rate is half of its maximum.

Data set [1] addresses T1, ECF-FolT2 (Lactobacillus delbrueckii, UniProt Q1G929+Q1GBI9+Q1GBJ0).
T1 construct: gene ecfA1; full complex EcfA-EcfA'-EcfT-FolT2, ~115 kDa; N-terminal His10-TEV tag, C-terminal StrepII tag on FolT2; expressed in E. coli MC1061; MSP2N2 lipid nanodiscs; with Energy-coupling factor transporter transmembrane protein EcfT
Kind of data set: cryo-EM structure, […] Å. It counts as binding. The settings on record: lipid nanodiscs.

The target in data set [2] is T1, ECF-FolT2. Kind of data set: cryo-EM structure, […] Å. It counts as binding. The settings on record: 5 mM Mg-AMP-PNP, 10 µM folate, 37 °C; both nucleotide sites; lipid nanodiscs.
The next data set has as its target T2, solitary ECF module (Lactobacillus delbrueckii, UniProt Q1GBI9+Q1GBJ0).
T2 construct: gene ecfA1; EcfA-EcfA'-EcfT without S-component, ~92 kDa; N-terminal His10-TEV tag removed; expressed in E. coli MC1061; MSP2N2 lipid nanodiscs; with Energy-coupling factor transporter transmembrane protein EcfT
Kind of data set: cryo-EM structure, […] Å. It counts as binding. The following applies: Mg-ATP in both nucleotide sites, closed ATPase dimer; lipid nanodiscs; catalytically inactive double mutant 2EQcryo.

For data set [3], the target named is T3, solitary ECF module co-reconstituted with solitary FolT1 (Lactobacillus delbrueckii, UniProt Q1G930).
T3 construct: gene Ldb1624; FolT1 with N-terminal His8 tag from L. lactis NZ9000; ECF module from E. coli, tag removed by TEV; co-reconstituted into proteoliposomes; Energy-coupling factor transporter transmembrane protein EcfT
Kind of data set: radiolabelled folate uptake into proteoliposomes. The following applies: 100 nM folate, 5 mM lumenal Mg-ATP, 50 mM KPi pH 7.5, 30 °C; labelled compound. Format: biochemical.

Substrate in data set [4]: Nc1ncnc2c1ncn2[C@@H]1O[C@H](COP(=O)(O)OP(=O)(O)OP(=O)(O)O)[C@@H](O)[C@H]1O
Kind of data set: enzyme-coupled (PK/LDH) spectrophotometric ATPase assay. The following applies: Mg-ATP 0-0.5 mM, 20 mM Tris pH 8.0, 150 mM NaCl, 37 °C, lipid nanodiscs. It counts as biochemical, Lactobacillus delbrueckii.

T1 sequence (Q1GBI8 entry or part of it, one chain of several, further chain): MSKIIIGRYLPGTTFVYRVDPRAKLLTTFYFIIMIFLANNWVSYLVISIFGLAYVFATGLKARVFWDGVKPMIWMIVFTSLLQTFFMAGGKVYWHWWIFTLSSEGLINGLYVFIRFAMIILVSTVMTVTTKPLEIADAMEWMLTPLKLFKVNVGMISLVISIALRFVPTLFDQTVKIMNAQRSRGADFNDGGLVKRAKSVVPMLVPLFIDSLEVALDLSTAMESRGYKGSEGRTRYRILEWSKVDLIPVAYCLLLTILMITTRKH
T1 sequence (Q1G929 entry or part of it, one chain of several): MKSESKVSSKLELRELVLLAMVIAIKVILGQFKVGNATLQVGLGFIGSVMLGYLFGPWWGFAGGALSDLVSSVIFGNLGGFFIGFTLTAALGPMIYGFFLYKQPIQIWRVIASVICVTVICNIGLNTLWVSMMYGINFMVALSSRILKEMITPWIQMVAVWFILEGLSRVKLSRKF
T2 sequence (Q1GBI8 entry or part of it, one chain of several, further chain): as the sequence (Q1GBI8 entry or part of it, one chain of several, further chain) above
T3 sequence (Q1GBI8 entry or part of it, one chain of several): as the sequence (Q1GBI8 entry or part of it, one chain of several, further chain) above
T3 sequence (Q1GBJ0 whole entry, one chain of several, further chain): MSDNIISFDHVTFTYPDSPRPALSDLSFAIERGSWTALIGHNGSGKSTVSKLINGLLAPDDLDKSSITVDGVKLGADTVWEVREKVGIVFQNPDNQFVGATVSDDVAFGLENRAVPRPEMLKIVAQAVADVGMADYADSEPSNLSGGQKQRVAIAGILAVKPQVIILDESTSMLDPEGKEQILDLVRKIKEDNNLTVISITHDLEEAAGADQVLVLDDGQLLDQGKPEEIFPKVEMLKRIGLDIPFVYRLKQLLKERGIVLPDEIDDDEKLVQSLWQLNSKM
T3 sequence (Q1G930 entry or part of it, one chain of several): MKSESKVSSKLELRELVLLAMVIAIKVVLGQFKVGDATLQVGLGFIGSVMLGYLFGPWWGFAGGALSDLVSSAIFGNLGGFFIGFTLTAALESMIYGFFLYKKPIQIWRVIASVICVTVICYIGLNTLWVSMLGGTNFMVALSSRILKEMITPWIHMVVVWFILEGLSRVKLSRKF

As to `Nc1ncnc2c1ncn2[C@@H]1O[C@H](COP(=O)(O)OP(=O)(O)O)[C@@H](O)[C@H]1O` [ADP], on ECF-FolT2 [1] (5 mM Mg-ATP added, site in EcfA'), the “cryo-EM structure, 3.2 Å” value is given as “ADP is bound exclusively by residues from the EcfA’ subunit”.
With `Nc1ncnc2c1ncn2[C@@H]1O[C@H](COP(=O)(O)OP(=O)(O)NP(=O)(O)O)[C@@H](O)[C@H]1O` [AMP-PNP], the “cryo-EM structure, 3.6 Å” value at ECF-FolT2 [2] was “with AMP-PNP bound to both nucleotide-binding sites”.
Regarding `Nc1ncnc2c1ncn2[C@@H]1O[C@H](COP(=O)(O)OP(=O)(O)OP(=O)(O)O)[C@@H](O)[C@H]1O` [ATP], the “cryo-EM structure, 3.2 Å” value at ECF-FolT2 [1] (5 mM Mg-ATP, 10 µM folate, 37 °C, site in EcfA, adenine between EcfA Phe13 and FolT2 Arg174) was “ATP and ADP bound to the EcfA and EcfA’ subunits, respectively”. The “cryo-EM structure, 2.6 Å” value on solitary ECF module is “In both ATPase subunits, Mg-ATP is now bound and engaged with the signature motif”.
For `Nc1nc2ncc(CNc3ccc(C(=O)N[C@@H](CCC(=O)O)C(=O)O)cc3)nc2c(=O)[nH]1` [folate], in data set [3], the “radiolabelled folate uptake into proteoliposomes” value is “Uptake of folate into the proteoliposome lumen only occurred in the presence of lumenal Mg-ATP”.

B1: solitary ECF module (Lactobacillus delbrueckii subsp. bulgaricus ATCC 11842 = JCM 1002) (protein)
chain 1: SDNIISFDHVTFTYPDSPRPALSDLSFAIERGSWTALIGHNGSGKSTVSKLINGLLAPDDLDKSSITVDGVKLGADTVWEVREKVGIVFQNPDNQFVGATVSDDVAFGLENRAVPRPEMLKIVAQAVADVGMADYADSEPSNLSGGQKQRVAIAGILAVKPQVIILDESTSMLDPEGKEQILDLVRKIKEDNNLTVISITHDLEEAAGADQVLVLDDGQLLDQGKPEEIFPKVEMLKRIGLDIPFVYRLKQLLKERGIVLPDEIDDDEKLVQSLWQLNSKM
chain 2: MAIKFENVSYVYSPGSPLEAIGLDQLNFSLEEGKFIALVGHTGSGKSTLMQHFNALLKPTSGKIEIAGYTITPETGNKGLKDLRRKVSLAFQFSEAQLFENTVLKDVEYGPRNFGFSEDEAREAALKWLKKVGLKDDLIEHSPFDLSGGQMRRVALAGVLAYEPEIICLDEPAAGLDPMGRLEMMQLFKDYQAAGHTVILVTHNMDDVADYADDVLALEHGRLIKHASPKEVFKDSEWLQKHHLAEPRSARFAAKLEAAGLKLPGQPLTMPELADAIKQSLKGGEHE
notes: EcfA-EcfA'-EcfT without S-component, ~92 kDa; N-terminal His10-TEV tag removed; expressed in E. coli MC1061; MSP2N2 lipid nanodiscs; with Energy-coupling factor transporter transmembrane protein EcfT
As for B1, the Km in data set [4] was 136.2 µM.
